Source: patent US20200368166A1, “Oral Formulations And Uses Thereof” (Eustralis Pharmaceuticals Limited (Trading As Pressura …, priority 2018, published 2020)
Where “and” joins values, the source holds several entries; their conditions need not be identical. Equal values may be shown once.

How the values were obtained:
Type in all cases: physicochemical
[1] = Bulk and tap density, Carr's index
Description: Measurement of the bulk and tap density provides information on the flow properties and compressibility of the API. The bulk density is measured as the density of the material as it is “poured” or passively filled into a measuring vessel, whereas the tap density is a limiting density attained after “tapping in” the material. A Carr's index greater than 25 is considered to be an indication of poor flowability, and below 15, of good flowability.
Measurement of the bulk and tap density provides information on the flow and compressibility of the blend. Bulk and tap density and the subsequent Carr's index were determined on the Formulation 5 blend and the results are given in Table 13.

[2] = Particle size distribution (Malvern Mastersizer)
Description: The particle size distribution of compound (Ia) 2HCl (API) was determined using a Malvern Mastersizer. D(0.1) means that 10% of the sample is present as particles smaller than this size. D(0.5) means that 50% of the sample is present as particles smaller than this size. D(0.9) means that 90% of the sample is present as particles smaller than this size.

[3] = Solubility in dissolution media (sink conditions test); settings: 37° C.
Description: Selection of the dissolution medium is based on the solubility data and the dose range in order to ensure that sink conditions are met. The term ‘sink conditions’ is defined as the volume of medium at least greater than three times that required to form a saturated solution of drug substance.
The sink conditions test was performed as per USP 38 <1092> in the following dissolution medium: • 1. HCl 0.01 N, • 2. Buffer pH 6.8, • 3. Water.
Solubility determinations were performed on 75 mg of Compound (Ia) HCl dissolved in 250 mL of different media at 37° C. and stirred slightly. The λmax was determined by UV scan between 200-400 nm. Refer to Table 18 for the results.

[4] = Intrinsic dissolution rate (IDR) of compressed disc; settings: 200 mg disc, 100 rpm, 37° C.
Description: The IDR is determined by monitoring the drug release rate of a compressed disc of the pre-formulated drug. The IDR is independent of formulation effects and measures the intrinsic properties of the drug and salts as a function of dissolution media effects such as pH and ionic strength. A comparison of the IDR of the drug in water with that obtained in acid and alkali will provide a measure of the drug's ability to control its immediate microenvironment.
The IDR was determined by preparing a compressed disc containing 200 mg of Compound (Ia) 2HCl using slow compression. All metal surfaces were pre-lubricated using 4 drops of a 5% w/v solution of stearic acid in chloroform. The solvent was allowed to evaporate, the Compound (Ia) 2HCl added and the sample slowly compressed to 6 tonne. This pressure was maintained for 4 minutes to ensure adequate compression.
The discs were then rotated at 100 rpm, 25 mm from the bottom of a 1 litre flat bottomed dissolution vessel containing 1 litre of fluid maintained at 37° C. Manual sampling, with a sampling volume of 5 mL, was employed at 5, 10, 15, 30 and 60 minutes. The amount of drug released was then monitored, by HPLC. Compound (Ia) 2HCl was evaluated in 0.01N HCl (equivalent to gastric pH), phosphate buffer pH 6.8 (intestinal) and distilled water. Refer Table 19 for the percentage of Compound (Ia) 2HCl released.

pH of the API = test: pH of the API
Source text: Compound (Ia) HCl (API) is an acidic compound with an approximate pH of 2.5. Compound of Formula (I), in particular compound (Ia) as shown below, is used in all examples, and in particular the 2HCl salt of compound (Ia) (Compound (Ia) 2HCl).

[5] = API milled prior to GLP tablet manufacture (Table 16)

Bulk Density [1]: 0.63 g/mL | Carr's Index [1]: 24.29% | Tap Density [1]: 0.83 g/mL | Particle Size D (0.1) ([2]; API before milling (Table 1)): 8.41 μm | Particle Size D (0.5) ([2]; API before milling (Table 1)): 76.13 μm | Particle Size D (0.9) ([2]; API before milling (Table 1)): 404.59 μm | Particle Size D (0.1) [2, 5]: 1.2 μm | Particle Size D (0.5) [2, 5]: 38.6 μm | Particle Size D (0.9) [2, 5]: 133.3 μm | Appearance ([3]; 75 mg in 250 mL 0.01N Hydrochloric Acid (pH 2.0), full cell: Clear, homogeneous, translucent to light yellow.): Clear, | Appearance ([3]; 75 mg in 250 mL Phosphate Buffer (pH 6.8), full cell: White, turbid, heterogeneous liquid.): White, turbid, | Time to Dissolve ([3]; 75 mg in 250 mL Purified Water): 21 s | Appearance ([3]; 75 mg in 250 mL Purified Water, full cell: Clear, homogeneous, translucent to light yellow.): Clear, | % Released (IDR) ([4]; 0.01N 2HCl, t = 0 mins): 0% | % Released (IDR) ([4]; 0.01N 2HCl, t = 5 mins): 80% and 70% | % Released (IDR) ([4]; 0.01N 2HCl, t = 10 mins): 100% and 97% | % Released (IDR) ([4]; 0.01N 2HCl, t = 15 mins): 101% and 98% | % Released (IDR) ([4]; 0.01N 2HCl, t = 30 mins): 102% and 99% | % Released (IDR) ([4]; 0.01N 2HCl, t = 60 mins): 101% and 98% | % Released (IDR) ([4]; Phosphate buffer pH 6.8, t = 0 mins): 0% | % Released (IDR) ([4]; Phosphate buffer pH 6.8, t = 5 mins): 68% and 60% | % Released (IDR) ([4]; Phosphate buffer pH 6.8, t = 10 mins): 85% and 81% | % Released (IDR) ([4]; Phosphate buffer pH 6.8, t = 15 mins): 72% and 83% | % Released (IDR) ([4]; Phosphate buffer pH 6.8, t = 30 mins): 73% and 77% | % Released (IDR) ([4]; Phosphate buffer pH 6.8, t = 60 mins): 59% and 60% | % Released (IDR) ([4]; Water, t = 0 mins): 0% | % Released (IDR) ([4]; Water, t = 5 mins): 84% and 71% | % Released (IDR) ([4]; Water, t = 10 mins): 101% and 98% | % Released (IDR) ([4]; Water, t = 15 mins): 101% and 100% | % Released (IDR) ([4]; Water, t = 30 mins): 100% and 102% | % Released (IDR) ([4]; Water, t = 60 mins): 100% | approximate pH (pH of the API): ~2.5
SMILES: Cc1ccccc1-c1cc(N2CCN(C)CC2)ncc1C(=O)N(C)Cc1cc(C(F)(F)F)cc(C(F)(F)F)c1 [Compound (Ia) 2HCl]
